Measured values taken from patent publication US20260374739A1, “SMALL MOLECULAR WEIGHT CHEMICAL COMPOUND TO ANTAGONIZE EPH-EPHRIN TETRAMERIZATION AND INHIBIT BIDIRECTIONAL SIGNALING” (THE BOARD OF REGENTS OF THE UNIVERSITY OF TEXAS SYSTEM, priority 2022, published 2026).
Where “and” joins values, the source holds several entries; their conditions need not be identical. Identical values can stand only once. Entries after “also recorded” stand apart in the source; their conditions may differ. Like-named read-outs stand apart in the source and are kept apart here.

Assays:
[1] = pharmacokinetics, single IP injection; type: in vivo, mouse; set-up: spinal cord AUC0-t / plasma AUC0-t / brain AUC0-t / liver AUC0-t: unit not given here; conditions: for biodistribution: IP, mice; for plasma AUC0-t: 24 hr; for Cmax / Tmax: mouse; for Cmax: ip, 20 mg/kg
Description: Further studies were conducted as in vivo experiments to evaluate the effect of A20 when injected into the mouse. To formulate the compound for intraperitoneal (IP) injection, A20 was tested for solubility in various buffers, pH conditions, and with cyclodextrins (e.g. Captisol). The formulation was prepared by first dissolving A20 powder in DMSO and followed by mixing with sunflower seed oil (SSO) prior to administration (in 6% DMSO/94% SSO). […] PK profiling experiments were then conducted with A20 to determine its absorption, distribution, metabolism, and excretion (ADME) properties. Mice were given a single IP injection of 20 mg/kg A20 and after 10, 30, 90, 180, 360, 960, 1440 min, three animals per time point were sacrificed and tissue was collected and subjected to mass spectrometry.
A study was conducted with A20 salt dissolved solely in PBS and injected at 20 mg/kg to match the previously described study of the free-base. […] The results from the brain, spinal cord, and liver tissues are particularly outstanding and indicate that significant levels of A20 salt remain even after the final collection at 24 hr time point.

[2] = system: Zymosan-induced thermal pain in mice; experiment: Zymosan inflammatory pain, thermal; type: in vivo, mouse; conditions: PO; for thermal pain ratio: A20 experiment vehicle close to 6
Description: An alternative and potentially faster pain model using Zymosin (an inflammatory agent like CFA) to induce inflammatory pain was tested. […] Mice were first acclimated to the pain testing set ups and then subjected to baseline mechanical and thermal pain measurements. Early in the morning the following day, the left hind paws were injected subcutaneously with 30 μL of Zymosan (5 mg/ml in PBS; Z4250, Sigma-Aldrich). Two hours after the Zymosan injection, the left hind paws were assessed for thermal pain using Hargreaves device (2-4 hr), and then left paws tested for mechanical pain using VF filaments (4-6 hr), and then again for thermal pain (6-8 hr). Data from two independent experiments were pooled to increase the n values for the three different genotypes. […] Thermal pain increased in all group following Zymosan injury as indicated by a decreased average response time to the infrared heat source in all animals assessed, and the level of pain intensified from the 2-4 hr testing period to the 6-8 hr period.
Inflammatory pain was induced by subcutaneous injection of 30 μl of 5 mg/ml Zymosan into the right hind paws of 12 wild-type adult male mice (5-6 months age, 129×1/SvJ background) that in previous days were acclimated to the testing chambers and assessed to obtain baseline pain measurements. After 15 min, mice were orally dosed with either vehicle only (97% PBS/3% DMSO) or with 20, 10, or 5 mg/kg of A20 (2×·HCl salt in vehicle), 3 mice for each condition. Two hours after Zymosan injection, the right hind paws were assessed for thermal pain using Hargreaves device (2-4 hr), then mice were orally dosed again with vehicle only or A20 chemicals, and then right paws tested for mechanical pain using VF filaments (4-6 hr), and then again for thermal pain (6-8 hr).
Inflammatory pain was induced by subcutaneous injection of 30 μl of 5 mg/ml Zymosan into the left hind paws of 9 wild-type adult males (5-6 months age, 129/CD1 mixed background) that in previous days were acclimated to the testing chambers and assessed to obtain baseline pain measurements. After 15 min, mice were orally dosed with either vehicle only (97% PBS/3% DMSO) or with 20 mg/kg of 3511-I (2×·HCl salt in vehicle), or 20 mg/kg BQPB4 (3×·HCl salt in 97% sunflower seed oil/3% DMSO), 3 mice for each condition. Two hours after Zymosan injection, the left […] hind paws were assessed for mechanical pain using VF filaments (2-4 hr), then mice were orally dosed again with vehicle only or A20 chemicals, and then left hind paws tested for thermal pain using Hargreaves device (4-6 hr), and then again for mechanical pain (6-8 hr).
Inflammatory pain was induced by subcutaneous injection of Zymosan into left hind paws, followed 15 min later with an oral dose of either vehicle or 20, 10, or 5 mg/kg of BQPB4 (3×·HCl salt in 97% sunflower seed oil/3% DMSO). Two hours after Zymosan injection, the left hind paws were assessed for mechanical pain using VF filaments (2-4 hr), then mice were orally dosed again with vehicle or BQPB4 chemical, and then hind paws tested for thermal pain using Hargreaves device (4-6 hr), and then tested again for mechanical pain (6-8 hr). […] Calculation of pain ratios confirmed the significant dose-dependent effects of BQPB4 at blunting thermal pain (FIG. 92B).

Compound: Oc1c(Br)cc(CN2CCOCC2)c2cccnc12 [Compound 5, 7-bromo-5-(morpholinomethyl)quinolin-8-ol]
- biodistribution [1]: distributes to plasma, brain, and spinal cord
- brain AUC0-t ([1]; free base, IP 20 mg/kg): 6,684
- spinal cord AUC0-t ([1]; free base, IP 20 mg/kg): 4,928
- plasma AUC0-t ([1]; free base, IP 20 mg/kg): 14,636
- Cmax ([1]; brain, free base, IP 20 mg/kg, read-out: brain Cmax): 104 ng/mL and 323 nM
- Tmax ([1]; brain, free base, IP 20 mg/kg, read-out: brain time of Cmax (converted)): 10 min
- Cmax ([1]; plasma, free base, IP 20 mg/kg, DMSO/SSO, read-out: plasma Cmax): 0.214 µg/mL
- Cmax ([1]; plasma, free base, IP 20 mg/kg, read-out: plasma Cmax): 0.665 µM
- Tmax ([1]; plasma, free base, IP 20 mg/kg, read-out: plasma time of Cmax (converted)): 10 min
- Cmax ([1]; spinal cord, free base, IP 20 mg/kg, read-out: spinal cord Cmax): 88 ng/mL and 273 nM
- thermal pain [2]: significant reductions in both mechanical and thermal pain
- thermal pain ratio [2]: around 3

Compound: Oc1c(Br)cc(CN2CCOCC2)c2cccnc12 [Compound 6, 4-((7-bromo-8-hydroxyquinolin-1-ium-5-yl)methyl)morpholin-4-ium chloride]
- Cmax ([1]; brain, salt in PBS, IP 20 mg/kg, read-out: brain Cmax): 7.03 µM and 2790 ng/mL
- Cmax ([1]; liver, salt in PBS, IP 20 mg/kg, read-out: liver Cmax): 22600 ng/mL and 57 µM
- Cmax ([1]; plasma, salt in PBS, IP 20 mg/kg, read-out: plasma Cmax): 2880 ng/mL and 7.27 µM
- Cmax ([1]; spinal cord, salt in PBS, IP 20 mg/kg, read-out: spinal cord Cmax): 3310 ng/mL and 8.35 µM
- brain AUC0-t ([1]; salt in PBS, IP 20 mg/kg): 136,933
- brain time of Cmax ([1]; salt in PBS, IP 20 mg/kg): 10 min
- liver AUC0-t ([1]; salt in PBS, IP 20 mg/kg): 1,363,490
- plasma time of Cmax ([1]; salt in PBS, IP 20 mg/kg): 10 min
- spinal cord AUC0-t ([1]; salt in PBS, IP 20 mg/kg): 86,044
- plasma AUC0-t ([1]; salt in PBS, IP 20 mg/kg): 81,039
- brain AUC0-t increase over the free-base ([1]; salt vs free-base): > 20 fold
- brain Cmax increase over the free-base ([1]; salt vs free-base): > 26 fold
- plasma AUC0-t increase over the free-base ([1]; salt vs free-base): > 5.5 fold
- plasma Cmax increase over the free-base ([1]; salt vs free-base): > 13 fold
- spinal cord AUC0-t increase over the free-base ([1]; salt vs free-base): > 17 fold
- spinal cord Cmax increase over the free-base ([1]; salt vs free-base): > 37 fold

Compound: Oc1c(Br)cc(CN2CCN(c3ccc(Br)cc3)CC2)c2cccnc12 [Compound 28, 7-bromo-5-((4-(4-bromophenyl)piperazin-1-yl)methyl)quinolin-8-ol]
- thermal pain ratio [2]: below 2
- thermal pain ([2]; listed as BQPB4): significantly less thermal pain; also recorded: the 20 mg/kg dose produced the strongest and most significant reduction in pain, followed by the 10 mg/kg dose, and then the 5 mg/kg dose

Compound: Oc1ccc(CN2CCN(Cc3ccc(Br)cc3)CC2)c2cccnc12 [Compound 42, 5-((4-(4-bromobenzyl)piperazin-1-yl)methyl)quinolin-8-ol]
- biodistribution ([1]; listed as QPB4-Bn): significantly high levels of compound reach intended tissues (i.e., brain, spinal cord, liver, skin) and persist at high concentrations during the 24 hr period

Compound: COc1ccccc1N1CCN(Cc2cc(I)c(O)c3ncccc23)CC1 [Compound 71, 7-iodo-5-((4-(2-methoxyphenyl)piperazin-1-yl)methyl)quinolin-8-ol]
- thermal pain [2]: significantly less thermal pain
- thermal pain ratio [2]: ~3
